The supplement of paper PMC10307832

The cell lines below were run with CC[C@@H]1C(=O)N(C)c2cnc(Nc3ccc(C(=O)NC4CCN(C)CC4)cc3OC)nc2N1C1CCCC1 [BI-2536] + C[C@]1(O)C[C@@H](c2nc(-c3ccc4ccc(-c5ccccc5)nc4c3)c3c(N)nccn32)C1 [Linsitinib] (partner 1 µM) (assay: relative viability (nuclei count vs DMSO), 5 days (fraction); higher = more cells survive). Conditions: first compound 0.01 µM.
Summary of the method: (§1)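 A single step with final 0.05% Triton X-100, 1% formaldehyde and 1 ug/ml Hoechst fixed the cells and stained nuclei 5 days after treatment. Lung cancer cell lines in 1536-well plates had been treated by pin tool the day after seeding with one drug alone or a fixed anchor-drug dose plus five library-drug doses (not always all listed) in √10 steps, and nuclei were counted on 4× images. Relative viability is the ratio of nuclei in treated wells to nuclei in vehicle wells, taken as the median of duplicate plates.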
With EKVX the relative viability was 1.1. LC-2-ad was tested, and the relative viability was 0.891. Cell Line NCI-H1944 has a relative viability of 1.35. In the case of NCI-H1975, the relative viability is reported as 0.948. RERF-LC-KJ was tested, and the relative viability was 0.969. Work on NCI-H358 yielded a relative viability of 0.723. Cell Line NCI-H650 has a relative viability of 0.964. In the case of PC-3 [JPC-3], the relative viability is reported as 0.974.

Same assay, conditions: first compound 0.03162 µM
EKVX showed a relative viability of 0.96. In the case of LC-2-ad, the relative viability is reported as 0.85. NCI-H1944 was tested, and the relative viability was 1.27. Work on NCI-H1975 yielded a relative viability of 0.861. RERF-LC-KJ was tested, and the relative viability was 0.913. For NCI-H358, the relative viability was 0.676. With NCI-H650 the relative viability was 0.881. PC-3 [JPC-3] gave a relative viability of 0.899.

Same assay, conditions: first compound 0.1 µM
With EKVX the relative viability was 0.818. Cell Line LC-2-ad has a relative viability of 0.382. With NCI-H1944 the relative viability was 1.17. NCI-H1975 showed a relative viability of 1.03. RERF-LC-KJ gave a relative viability of 0.829. With NCI-H358 the relative viability was 0.402. NCI-H650 was tested, and the relative viability was 0.534. In the case of PC-3 [JPC-3], the relative viability is reported as 1.

Same assay, conditions: first compound 0.3162 µM
In the case of EKVX, the relative viability is reported as 0.368. For LC-2-ad, the relative viability was 0.15. Work on NCI-H1944 yielded a relative viability of 1.02. Work on NCI-H1975 yielded a relative viability of 0.192. In the case of RERF-LC-KJ, the relative viability is reported as 0.522. NCI-H358 was tested, and the relative viability was 0.161. NCI-H650 was tested, and the relative viability was 0.165. With PC-3 [JPC-3] the relative viability was 0.756.

Same assay, conditions: first compound 1 µM
In the case of EKVX, the relative viability is reported as 0.169. LC-2-ad showed a relative viability of 0.143. NCI-H1944 gave a relative viability of 0.283. NCI-H1975 gave a relative viability of 0.147. RERF-LC-KJ gave a relative viability of 0.199. For NCI-H358, the relative viability was 0.137. In the case of NCI-H650, the relative viability is reported as 0.17. PC-3 [JPC-3] was tested, and the relative viability was 0.259.

The cell lines below were run with CC[C@@H]1C(=O)N(C)c2cnc(Nc3ccc(C(=O)NC4CCN(C)CC4)cc3OC)nc2N1C1CCCC1 [BI-2536] + CC(=O)Nc1cccc(-n2c(=O)n(C3CC3)c(=O)c3c(Nc4ccc(I)cc4F)n(C)c(=O)c(C)c32)c1 [Trametinib] (partner 0.02 µM) in the same assay as above. Conditions: first compound 0.01 µM.
Summary of the method: as §1
Cell Line EKVX has a relative viability of 0.313. In the case of LC-2-ad, the relative viability is reported as 0.913. With NCI-H1944 the relative viability was 0.392. NCI-H1975 showed a relative viability of 0.252. With RERF-LC-KJ the relative viability was 0.884. Work on NCI-H358 yielded a relative viability of 0.146. With NCI-H650 the relative viability was 0.847. PC-3 [JPC-3] was tested, and the relative viability was 0.71.

Same assay, conditions: first compound 0.03162 µM
Work on EKVX yielded a relative viability of 0.343. LC-2-ad showed a relative viability of 0.803. Cell Line NCI-H1944 has a relative viability of 0.427. For NCI-H1975, the relative viability was 0.363. Work on RERF-LC-KJ yielded a relative viability of 0.953. Work on NCI-H358 yielded a relative viability of 0.126. With NCI-H650 the relative viability was 0.956. For PC-3 [JPC-3], the relative viability was 0.583.

Same assay, conditions: first compound 0.1 µM
EKVX gave a relative viability of 0.379. Cell Line LC-2-ad has a relative viability of 0.672. Work on NCI-H1944 yielded a relative viability of 0.439. Work on NCI-H1975 yielded a relative viability of 0.295. RERF-LC-KJ showed a relative viability of 0.527. NCI-H358 gave a relative viability of 0.11. NCI-H650 gave a relative viability of 0.858. For PC-3 [JPC-3], the relative viability was 0.616.

Same assay, conditions: first compound 0.3162 µM
Work on EKVX yielded a relative viability of 0.155. With LC-2-ad the relative viability was 0.224. Work on NCI-H1944 yielded a relative viability of 0.144. For NCI-H1975, the relative viability was 0.12. For RERF-LC-KJ, the relative viability was 0.186. With NCI-H358 the relative viability was 0.0815. Cell Line NCI-H650 has a relative viability of 0.152. For PC-3 [JPC-3], the relative viability was 0.357.

Same assay, conditions: first compound 1 µM
With EKVX the relative viability was 0.151. Work on LC-2-ad yielded a relative viability of 0.239. For NCI-H1944, the relative viability was 0.186. Work on NCI-H1975 yielded a relative viability of 0.122. With RERF-LC-KJ the relative viability was 0.225. With NCI-H358 the relative viability was 0.0734. With NCI-H650 the relative viability was 0.16. Work on PC-3 [JPC-3] yielded a relative viability of 0.438.

What follows are cell lines tested with CC[C@@H]1C(=O)N(C)c2cnc(Nc3ccc(C(=O)NC4CCN(C)CC4)cc3OC)nc2N1C1CCCC1 [BI-2536] + CCNC(=O)c1noc(-c2cc(C(C)C)c(O)cc2O)c1-c1ccc(CN2CCOCC2)cc1 [Luminespib] (partner 0.01 µM) in the same assay as above. Conditions: first compound 0.01 µM.
Summary of the method: as §1
With EKVX the relative viability was 0.911. LC-2-ad showed a relative viability of 0.897. Cell Line NCI-H1944 has a relative viability of 0.694. Work on NCI-H1975 yielded a relative viability of 0.253. With RERF-LC-KJ the relative viability was 1.28. With NCI-H358 the relative viability was 0.414. Cell Line NCI-H650 has a relative viability of 0.728. With PC-3 [JPC-3] the relative viability was 0.705.

Same assay, conditions: first compound 0.03162 µM
EKVX showed a relative viability of 0.955. In the case of LC-2-ad, the relative viability is reported as 0.319. NCI-H1944 gave a relative viability of 0.794. NCI-H1975 gave a relative viability of 0.209. For RERF-LC-KJ, the relative viability was 0.614. Work on NCI-H358 yielded a relative viability of 0.283. Work on NCI-H650 yielded a relative viability of 0.622. Cell Line PC-3 [JPC-3] has a relative viability of 0.683.

Same assay, conditions: first compound 0.1 µM
EKVX gave a relative viability of 0.8. LC-2-ad showed a relative viability of 0.325. NCI-H1944 was tested, and the relative viability was 0.863. Work on NCI-H1975 yielded a relative viability of 0.231. RERF-LC-KJ showed a relative viability of 0.26. For NCI-H358, the relative viability was 0.398. In the case of NCI-H650, the relative viability is reported as 0.21. In the case of PC-3 [JPC-3], the relative viability is reported as 0.496.

Same assay, conditions: first compound 0.3162 µM
EKVX showed a relative viability of 0.292. LC-2-ad was tested, and the relative viability was 0.289. For NCI-H1944, the relative viability was 0.107. In the case of NCI-H1975, the relative viability is reported as 0.158. With RERF-LC-KJ the relative viability was 0.306. NCI-H358 was tested, and the relative viability was 0.127. Work on NCI-H650 yielded a relative viability of 0.13. PC-3 [JPC-3] gave a relative viability of 0.215.

Same assay, conditions: first compound 1 µM
EKVX showed a relative viability of 0.123. Cell Line LC-2-ad has a relative viability of 0.375. NCI-H1944 was tested, and the relative viability was 0.136. NCI-H1975 gave a relative viability of 0.149. With RERF-LC-KJ the relative viability was 0.303. NCI-H358 gave a relative viability of 0.0998. For NCI-H650, the relative viability was 0.103. PC-3 [JPC-3] gave a relative viability of 0.205.

What follows are cell lines tested with CC1CC(=O)N(C2=CN=C(N=C2N1C3CCCC3)NC4=C(C=C(C=C4)C(=O)NC5CCN(CC5)C)OC)C [NPK76-II-72-1] + Cc1nc(NC(=O)N2CCC[C@H]2C(N)=O)sc1-c1ccnc(C(C)(C)C(F)(F)F)c1 [Alpelisib] (partner 2 µM) in the same assay as above. Conditions: first compound 0.01 µM.
Summary of the method: as §1
EKVX gave a relative viability of 0.796. For LC-2-ad, the relative viability was 0.845. Cell Line NCI-H1944 has a relative viability of 0.801. NCI-H1975 showed a relative viability of 0.569. For RERF-LC-KJ, the relative viability was 0.727. In the case of NCI-H358, the relative viability is reported as 0.876. NCI-H650 was tested, and the relative viability was 1.15. PC-3 [JPC-3] was tested, and the relative viability was 1.01.

Same assay, conditions: first compound 0.03162 µM
In the case of EKVX, the relative viability is reported as 0.897. For LC-2-ad, the relative viability was 0.921. With NCI-H1944 the relative viability was 0.81. NCI-H1975 showed a relative viability of 0.691. RERF-LC-KJ was tested, and the relative viability was 0.928. NCI-H358 was tested, and the relative viability was 0.827. NCI-H650 showed a relative viability of 1.23. Work on PC-3 [JPC-3] yielded a relative viability of 0.949.

Same assay, conditions: first compound 0.1 µM
With EKVX the relative viability was 0.884. LC-2-ad was tested, and the relative viability was 0.838. NCI-H1944 showed a relative viability of 0.871. NCI-H1975 showed a relative viability of 0.592. In the case of RERF-LC-KJ, the relative viability is reported as 0.773. NCI-H358 gave a relative viability of 0.884. NCI-H650 showed a relative viability of 0.952. PC-3 [JPC-3] gave a relative viability of 0.987.

Same assay, conditions: first compound 0.3162 µM
EKVX was tested, and the relative viability was 0.716. LC-2-ad was tested, and the relative viability was 0.936. With NCI-H1944 the relative viability was 0.715. Cell Line NCI-H1975 has a relative viability of 0.622. Work on RERF-LC-KJ yielded a relative viability of 0.683. For NCI-H358, the relative viability was 0.508. Work on PC-3 [JPC-3] yielded a relative viability of 0.985.

Same assay, conditions: first compound 1 µM
EKVX showed a relative viability of 1.1. For LC-2-ad, the relative viability was 1. NCI-H1944 was tested, and the relative viability was 0.928. Work on NCI-H1975 yielded a relative viability of 0.665. With RERF-LC-KJ the relative viability was 0.86. In the case of NCI-H358, the relative viability is reported as 1.01. For NCI-H650, the relative viability was 1.13. With PC-3 [JPC-3] the relative viability was 1.09.
